Test results taken from patent US11286299B2, “Peptides selective for Bcl-2 family proteins” (Massachusetts Institute of Technology, priority 2018, dated 2022).
Read-outs that look alike come from different tables or passages of the source. Blank lines part the entries; values can stand above or below the substance they belong to.

How the values were obtained:
Bfl-1 [1] = biological target: T1, Bfl-1 (Homo sapiens, UniProt Q16548); assay: Competition fluorescence polarization (anisotropy) binding assay; design: Bfl-1 residues 1-151; made in house; host or cells: E. coli
T1 sequence (Q16548 1-151): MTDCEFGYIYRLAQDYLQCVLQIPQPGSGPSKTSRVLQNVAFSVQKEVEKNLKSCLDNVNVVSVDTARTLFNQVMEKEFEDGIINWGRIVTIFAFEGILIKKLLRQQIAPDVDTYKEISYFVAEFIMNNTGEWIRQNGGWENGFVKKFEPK
Method: (§1) Fluorescence polarization competition binding assay Competition fluorescence polarization experiments were performed as described by Jenson et al. […]. Experiments were performed in triplicate, using the same protein and peptide preparations, and data were fit as described by Foight et al. (20) to a complete competitive binding model (47).

[2] = system: B-ALL cell lines with engineered dependencies on human anti-apoptotic genes (Bfl-1, Mcl-1, Bcl-xL, Bcl-2); assay: Cellular BH3 profiling assay (mitochondrial depolarization, JC-1, permeabilized cells); type: cell-based, murine; conditions: for pro-apoptotic response in dependent cell lines: permeabilized cells, Bfl-1 vs Mcl-1 or Bcl-xL dependent cell lines
Method: Cell Culture We used murine p185+ Arf^−/^− B-ALL suspension cell lines with engineered dependencies on the human anti-apoptotic genes (Bfl-1, Mcl-1, Bcl-xL), along with an apoptosis-resistant (Bax^−/−/Bak^−/−) control(51). Cells were grown in Roswell Park Memorial Institute (RPMI) 1640 medium supplemented with 10% (v/v) fetal bovine serum, 2 mM L-glutamine, 100 U/mL penicillin, […] streptomycin, 0.1 mM minimal essential medium nonessential amino acids, 25 mM HEPES and […] β-mercaptoethanol. Cell line authentication was performed by short tandem repeat (STR) analysis. Cell were monitored for mycoplasma contamination using the MycoAlert® Mycoplasma Detection Kit (Lonza, Rockland, Mass., USA).
(§2) Cellular BH3 profiling assay BH3 profiling was adapted from the protocol of Ryan and Letai (32). Peptides were diluted at the desired concentrations in MEB buffer (150 mM Mannitol, 10 mM HEPES-KOH pH 7.5, 50 mM KCl, 0.02 mM EGTA, 0.02 mM EDTA, 0.1% BSA and 5 mM succinate) containing […] oligomycin, […] digitonin, […] and 10 mM 2-mercaptoethanol in 384-well plates. […] Fluorescence emission was measured every 5 min for 3 hr at […] with 525 nm excitation on a Tecan Spark 10M. To produce percent depolarization, the area under the resulting curve was calculated and normalized to the assay controls. […]
as §2, with “Peptides” for “Cellular BH3 profiling assay BH3 profiling was adapted from the protocol of Ryan and Letai (32). Peptides”, “titrated by serial dilution” for “diluted at the desired concentrations”, “HEPES-KOH,” for “HEPES-KOH”, “Succinate)” for “succinate)”, “h” for “hr”
As depicted in FIGS. 7-11, permeabilized cells were contacted with increasing doses of BH3 peptides, ad mitochondria outer membrane permeabilization (MOMP) was monitored using a voltage-sensitive dye (JC-1). […]

Bfl-1 [3] = biological target: T1, Bfl-1; assay: Yeast cell-surface display binding (FACS titration); design: Bfl-1 residues 1-151; made in house; host or cells: E. coli; conditions: for binding to Bfl-1 in yeast display: SORTCERY designs; for reported affinity, Bfl-1: Table X3, this study, Bfl-1 specific peptides, cell-surface measurement, highest concentration tested 1000 nM
Excerpt: Protein constructs Anti-apoptotic protein constructs used in this work correspond to human Bcl-xL residues 1-209, Mcl-1 residues 172-327 and Bfl-1 residues 1-151, expressed in E. coli and purified as described by Dutta et al. (45).
Cells were filtered and washed 2× in chilled BSS before resuspending the labeled cells in BSS and using a BD FACSAria flow cytometer or a BD FACSCanto and FACSDiva software for cell sorting or analysis.
Crystals were flash frozen in liquid nitrogen.

Bcl-xL [4] = biological target: T2, Bcl-xL (Homo sapiens, UniProt Q07817); conditions: cited from earlier work; for Ki: Table X3, previously reported selective peptides, read-out: reported affinity, Bcl-xL
T2 sequence (Q07817 1-209): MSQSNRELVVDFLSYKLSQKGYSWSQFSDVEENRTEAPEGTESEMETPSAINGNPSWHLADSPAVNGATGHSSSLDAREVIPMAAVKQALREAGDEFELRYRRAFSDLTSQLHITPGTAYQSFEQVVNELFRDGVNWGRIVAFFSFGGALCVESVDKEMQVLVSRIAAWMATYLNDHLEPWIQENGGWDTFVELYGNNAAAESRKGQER

Bfl-1 [5] = biological target: T1, Bfl-1; conditions: cited from earlier work
Mcl-1 [6] = biological target: T3, Mcl-1 (Homo sapiens, UniProt Q07820); conditions: cited from earlier work; for Ki: Table X3, previously reported selective peptides, read-out: reported affinity, Mcl-1
T3 sequence (Q07820 172-327): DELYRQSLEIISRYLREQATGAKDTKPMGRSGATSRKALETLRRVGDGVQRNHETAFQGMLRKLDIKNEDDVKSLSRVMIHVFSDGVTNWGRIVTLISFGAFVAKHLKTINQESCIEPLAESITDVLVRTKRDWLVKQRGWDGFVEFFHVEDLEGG

Mcl-1 [7] = biological target: T3, Mcl-1; assay: Competition fluorescence polarization (anisotropy) binding assay; design: Mcl-1 residues 172-327; made in house; host or cells: E. coli
Method: as §1

Bcl-xL [8] = biological target: T2, Bcl-xL; assay: as above; design: human Bcl-xL residues 1-209; made in house; host or cells: E. coli
Method: as §1

[9] = Table X2, 50 nM protein, 25 nM fluoresceinated Bim BH3, SD of three replicates, read-out: Ki, Mcl-1
[10] = fluoresceinated Bim BH3 competitor, as reported by Dutta et al. 2013
[11] = Table X2, 50 nM protein, 25 nM fluoresceinated Bim BH3, SD of three replicates, read-out: Ki, Bfl-1
[12] = Table X2, 50 nM protein, 25 nM fluoresceinated Bim BH3, SD of three replicates, read-out: Ki, Bcl-xL
[13] = Table X3, this study, same values as Table X2, read-out: reported affinity, Bfl-1
[14] = Table X3, this study, same values as Table X2, read-out: reported affinity, Mcl-1
[15] = Table X3, this study, same values as Table X2, read-out: reported affinity, Bcl-xL

binding to Bfl-1 in the FP competition assay (Bfl-1 [1]): weakly | reported affinity, Bfl-1 (Bfl-1 [3]): 3.2 ± 0.4 nM
Substance: Ac-RRVVQIAAGLRRAGDQLEKYGER-NH2 [srt.F10]
inhibition of Bfl-1 in the cellular assay relative to peptide FS1 [2]: at least as potently as a previously described peptide | pro-apoptotic response in dependent cell lines [2]: selectively induced a pro-apoptotic response in Bfl-1 dependent cell lines, but not in Mcl-1 or Bcl-xL dependent cell lines | binding to Bfl-1 in yeast display (Bfl-1 [3]): bound Bfl-1 with high affinity in yeast display

Substance: QWVREIAAGLRRAADDVNAQVER [FS2]
Ki (Bcl-xL [4]): > 5 µM | Ki (Bfl-1 [5]; Table X3, previously reported selective peptides, read-out: reported affinity, Bfl-1): 0.021 ± 0.006 µM | Ki (Mcl-1 [6]): 3.2 ± 0.3 µM | Kd (Mcl-1 [6]; read-out: Kd for Mcl-1): > 3 µM

Ki (Mcl-1 [7]; [9]): > 4 µM
Substance: Ac-QRIIWIAAELRRAADQLDAQIER-NH2 [srt.XF03]

Ki (Mcl-1 [7]; [9]): > 4 µM
Substance: Ac-QRIIWIAAELRRAADELDKQIER-NH2 [srt.XF02]

Substance: QWVREIAAGLRLAADNVNAQLER [FS1]
Ki (Bcl-xL [4]): 2.4 ± 0.4 µM | Ki (Bfl-1 [5]; previously described peptide (ref 25), read-out: Ki for Bfl-1): 0.015 µM | Ki (Mcl-1 [6]): > 5 µM

binding to Bfl-1 in the FP competition assay (Bfl-1 [1]): undetectably | reported affinity, Bfl-1 (Bfl-1 [3]): 14 ± 2 nM
Substance: Ac-QRVVHIAAGLRRTGDQLEAYGER-NH2 [srt.F4]
pro-apoptotic response in dependent cell lines [2]: selectively induced a pro-apoptotic response in Bfl-1 dependent cell lines, but not in Mcl-1 or Bcl-xL dependent cell lines | binding to Bfl-1 in yeast display (Bfl-1 [3]): bound Bfl-1 with high affinity in yeast display

Substance: (fl)IWIAQELRRIGDEFNAYY [Fluoresceinated Bim]
Kd (Bcl-xL [4]; [10]): 0.006 ± 0.001 µM | Kd (Bfl-1 [5]; [10]): 0.004 ± 0.001 µM | Kd (Mcl-1 [6]; fluoresceinated Bim BH3 competitor, as reported by Dutta et al. 2013, read-out: Kd, Mcl-1): 0.0008 ± 0.0004 µM

Ki (Bfl-1 [1]; [11]): > 4 µM
Substance: Ac-QWLRDVVAELARIADEFHAQYER-NH2 [srt.MX05]

Ki (Bcl-xL [8]; [12]): > 4 µM
Substance: Ac-RRVDEIAQILRRIGDNVTTYIER-NH2 [srt.MF06]

Ki (Bfl-1 [1]; [11]): > 4 µM | Ki (Bfl-1 [1]; [13]): > 4 µM | Ki (Mcl-1 [7]; [9]): > 4 µM | Ki (Mcl-1 [7]; [14]): > 4 µM | Ki (Bcl-xL [8]; [12]): 0.0037 ± 0.0003 µM
Substance: Ac-QPLIWFGAQLRRGADEFAAQRER-NH2 [srt.X7]

Ki (Bfl-1 [1]; [11]): > 4 µM | Ki (Bfl-1 [1]; [13]): > 4 µM | Ki (Mcl-1 [7]; [9]): > 4 µM | Ki (Mcl-1 [7]; [14]): > 4 µM | Ki (Bcl-xL [8]; [12]): 0.00132 ± 0.00018 µM
Substance: Ac-QTLIWYGASLRRYADEFAKQRER-NH2 [srt.X1]

Ki (Bfl-1 [1]; [11]): > 4 µM | Ki (Bfl-1 [1]; [13]): > 4 µM | Ki (Mcl-1 [7]; [9]): 0.0006 ± 0.0003 µM | Ki (Bcl-xL [8]; [12]): > 4 µM | Ki (Bcl-xL [8]; [15]): > 4 µM
Substance: Ac-RSQYEVIQELIRIGDIVLAYFER-NH2 [srt.M9]

Ki (Bfl-1 [1]; [11]): > 4 µM
Substance: Ac-QWLRWVIAELIRIADEFHAQYER-NH2 [srt.MX01]

Ki (Bfl-1 [1]; [11]): > 4 µM | Ki (Bfl-1 [1]; [13]): > 4 µM | Ki (Bcl-xL [8]; [12]): > 4 µM | Ki (Bcl-xL [8]; [15]): > 4 µM
Substance: Ac-RSELEVVQELVRIGDIVVAYFER-NH2 [srt.M1]
